According to US11147855B2, “Methods for treating glaucoma or ocular hypertension comprising delivery of prostaglandins to the vitreous humour” (Cella Therapeutics, LLC, priority 2018, dated 2021):

System: African Green monkeys
Assay: IOP after intravitreal injection in African Green monkeys, compared with PBS in the fellow eye
Assay type: in vivo, African Green monkey
Details: for animals responding with a reduction in IOP of ≥30%: 4 animals
Procedure: Eight African Green monkeys were screened to identify 4 animals with high-normal IOP. Animals were anesthetized with ketamine 10 mg/kg and Xylazine 0.5 mg/kg. Bimatoprost acid 100 ng in 50 μl was injected intravitreally in one eye through a 30-gauge syringe using a shelved technique, and 50 μl of phosphate buffered saline (PBS) was injected into the fellow eye as a concurrent control on days 0, 1, 2 at 8:30 pm. The bimatoprost acid dose was escalated to 200 ng in 100 μl, with the same volume of PBS given to the fellow eye, on days 3 (8:30 pm) and 4 (5:30 pm). IOP was measured with a Tonovet tonometer at 8:30 am, 11:30 am and 8:30 pm on day 1; 8:30 am, 11:30 am and 5:30 pm on day 4; and at 8:30 am on days 2, 3 and 5. The person measuring the IOP was masked to treatment assignment. Slit lamp exams were performed on day 0, 1 and 5. OCTs were performed at baseline and day 5.

O=C(O)CCC/C=C\C[C@@H]1[C@@H](/C=C/[C@@H](O)CCc2ccccc2)[C@H](O)C[C@@H]1O [bimatoprost acid]
animals responding with a reduction in IOP of ≥30% (100 ng dose intravitreal): One of four
reduction in IOP compared with the fellow eye (100 ng in 50 μl intravitreal, days 0, 1, 2, animal B392, at 1 timepoint): ≥ 30%
animals responding with a reduction in IOP of ≥30% (200 ng dose intravitreal): Three of four
IOP reduced in the treated eye compared with the fellow eye receiving PBS (200 ng dose, animal B392, day 5): 52%
reduction in IOP compared with the fellow eye (200 ng in 100 μl intravitreal, days 3 and 4, responding animals, at 1 or more timepoints): ≥ 30%
IOP response (animal B300, 100 ng and 200 ng doses): did not respond to either dose
